The source of these data is US20170247393A1, “Aminoisoxazoline Compounds as Agonists of Alpha7-Nicotinic Acetylcholine Receptors” (Forum Pharmaceuticals, Inc., priority 2015, published 2017).

pKi: −log10 of the molar value. Structures can show the parent of a compound that is named as a salt. Where two headings read alike, the source gives them in different places.

For the assay, the target named is T1, human 5-HT3 serotonin receptors (Homo sapiens, UniProt P46098).
T1 sequence (P46098 24-478): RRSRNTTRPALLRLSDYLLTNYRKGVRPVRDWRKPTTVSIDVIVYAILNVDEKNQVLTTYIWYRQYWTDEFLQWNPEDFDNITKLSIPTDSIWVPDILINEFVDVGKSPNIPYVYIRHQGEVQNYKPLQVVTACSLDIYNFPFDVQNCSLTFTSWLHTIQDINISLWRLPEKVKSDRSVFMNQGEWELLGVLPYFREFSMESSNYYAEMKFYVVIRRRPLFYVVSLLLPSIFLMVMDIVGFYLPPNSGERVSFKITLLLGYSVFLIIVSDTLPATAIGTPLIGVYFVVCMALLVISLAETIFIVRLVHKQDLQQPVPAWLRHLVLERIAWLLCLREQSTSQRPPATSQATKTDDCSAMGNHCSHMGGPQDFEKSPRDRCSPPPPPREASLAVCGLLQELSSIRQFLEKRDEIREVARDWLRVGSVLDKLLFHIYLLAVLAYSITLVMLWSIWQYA
Put plainly: biochemical. The assay is classed as binding.

Where [1] appears, read: CHO cell membranes expressing human 5-HT3 receptors, [3H]BRL 43694, 120 min at room temperature, read-out: h-5HT3 Ki.

With `Clc1ccc2cnc(NC3=NO[C@@]4(C3)CN3CCC4CC3)nc2c1` [(R)-49, (R)—N-(7-chloroquinazolin-2-yl)-4H-1′-azaspiro[isoxazole-5,3′-bicyclo[2.2.2]octan]-3-amine], the pKi (in general, −log10 of the Ki, conventionally taken in molar units) under setting [1] is < 5.00.
With `c1ccc(NC2=NOC3(C2)CN2CCC3CC2)cc1` (single isomer, unassigned) [Compound 1-P1, N-phenyl-4H-1′-azaspiro[isoxazole-5,3′-bicyclo[2.2.2]octan]-3-amine], the negative-log Ki (pKi) is 8.08.
Consider `Clc1ccc2cnc(NC3=NO[C@@]4(C3)CN3CCC4CC3)cc2c1` [(R)-18, (R)—N-(6-chloroisoquinolin-3-yl)-4H-1′-azaspiroksoxazole-5,3^1-bicyclo[2.2.2]octan1-3-amine hydrochloride], for which, under setting [1], the pKi was < 5.00.
On the same count and under the same terms, as for `Clc1ccc2nc(NC3=NOC4(C3)CN3CCC4CC3)sc2c1` (single isomer, unassigned) [Compound 10-P2, N-(6-chlorobenzo[d]thiazol-2-yl)-4H-1′-azaspiro[isoxazole-5,3′-bicyclo[2.2.2]octan]-3-amine], the figure is < 5.00.
With `c1ccc2sc(NC3=NOC4(C3)CN3CCC4CC3)cc2c1` (racemic) [rac-12, (+/−)-N-(benzo[b]thiophen-2-yl)-4H-1′-azaspiro[isoxazole-5,3′-bicyclo[2.2.2]octan]-3-amine], under setting [1], the negative logarithm of the Ki (pKi) was 5.74.
Same read-out and setting: as for `Cc1coc2cc(NC3=NO[C@@]4(C3)CN3CCC4CC3)ccc12` [(R)-74, (R)—N-(3-methylbenzofuran-6-yl)-4H-1′-azaspiro[isoxazole-5,3′-bicyclo[2.2.2]octan]-3-amine hydrochloride], the figure is < 5.00.
With `COc1ccc2cnc(NC3=NO[C@@]4(C3)CN3CCC4CC3)cc2c1` [(R)-47, (R)—N-(6-methoxyisoquinolin-3-yl)-4H-1′-azaspiro[isoxazole-5,3′-bicyclo[2.2.2]octan]-3-amine hydrochloride], the negative-log Ki (pKi) under setting [1] is < 5.00.
For `Fc1ccc2cc(NC3=NO[C@@]4(C3)CN3CCC4CC3)ncc2c1` [(R)-44, (R)—N-(7-fluoroisoquinolin-3-yl)-4H-F-azaspiro[isoxazole-5,3^1-bicyclo[2.2.2]octan]-3-amine hydrochloride], the negative-log Ki (pKi) under setting [1] was < 5.00.
On the same count and under the same terms, under `COc1ccc2nc(NC3=NOC4(C3)CN3CCC4CC3)sc2c1` (single isomer, unassigned) [Compound 4-P2, N-(6-methoxybenzo[d]thiazol-2-yl)-4H-1′-azaspiro[isoxazole-5,3′-bicyclo[2.2.2]octan]-3-amine] stands < 5.00; under `Fc1ccc2cnc(NC3=NO[C@@]4(C3)CN3CCC4CC3)cc2c1` [(R)-45, (R)—N-(6-fluoroisoquinolin-3-yl)-4H-1′-azaspiro[isoxazole-5,3′-bicyclo[2.2.2]octan]-3-amine hydrochloride], < 5.00.
As for `Cc1cc2cnc(NC3=NO[C@@]4(C3)CN3CCC4CC3)cc2o1` [(R)-100, (R)-N-(2-methylfuro[3,2-c]pyridin-6-yl)spiro[4H-isoxazole-5,3′-quinuclidine]-3-amine hydrochloride], the pKi was < 5.00.
For `Clc1cccc2nc(NC3=NO[C@]4(C3)CN3CCC4CC3)sc12` [(S)-11, (S)—N-(7-chlorobenzo[d]thiazol-2-yl)-4H-1′-azaspiro[isoxazole-5,3′-bicyclo[2.2.2]octan]-3-amine], the pKi under setting [1] was 6.89.
The same measure, in the same setting: as for `Clc1csc2cc(NC3=NO[C@@]4(C3)CN3CCC4CC3)ccc12` [(R)-76, (R)—N -(3-chlorobenzo[b]thiophen-6-yl)-4H-1′-azaspiro[isoxazole-5,3′-bicyclo[2.2.2]octan]-3-amine hydrochloride], the figure is 5.55.
With `Cc1cn2ccc(NC3=NO[C@@]4(C3)CN3CCC4CC3)cc2n1` [(R)-96, (R)-N-(2-methylimidazo[1,2-a]pyridin-7-yl)-4H-1′-azaspiro[isoxazole-5,3′-bicyclo[2.2.2]octan]-3-amine hydrochloride], the pKi is < 5.00.
In the case of `Clc1ccc2cc(NC3=NOC4(C3)CN3CCC4CC3)ncc2c1` (single isomer, unassigned) [Compound 19-P2, N-(7-chloroisoquinolin-3-yl)-4H-1′-azaspiro[isoxazole-5,3′-bicyclo[2.2.2]octan]-3-amine], under setting [1], the pKi was < 5.00.
Same read-out and setting: under `c1ccc2c(NC3=NOC4(C3)CN3CCC4CC3)n[nH]c2c1` (racemic) [Compound 5-P1, N-(1H-indazol-3-yl)-4′H-4-azaspiro[bicyclo[2.2.2]octane-2,5′-isoxazol]-3′-amine] stands 6.12; under `Cc1nc2ccc(NC3=NO[C@@]4(C3)CN3CCC4CC3)cc2s1` [(R)-50, (R)—N-(2-methylbenzo[d]thiazol-6-yl)-4H-1′-azaspiro[isoxazole-5,3′-bicyclo[2.2.2]octan]-3-amine hydrochloride], 5.21.
For `Fc1cc2cc(NC3=NO[C@@]4(C3)CN3CCC4CC3)ncc2cc1Cl` [(R)-82, (R)—N-(7-chloro-6-fluoroisoquinolin-3-yl)-4H-1′-azaspiro[isoxazole-5,3′-bicyclo[2.2.2]octan]-3-amine hydrochloride], the pKi under setting [1] was < 5.00.
Still for that read-out and setting: under `FC(F)(F)c1cc2ccc(NC3=NO[C@@]4(C3)CN3CCC4CC3)cc2s1` [(R)-67, (R)—N-(2-(trifluoromethyl)benzo[b]thiophen-6-yl)-4H-1′-azaspiro[isoxazole-5,3′-bicyclo[2.2.2]octan]-3-amine hydrochloride] stands < 5.00; under `Fc1ccc2sc(NC3=NO[C@@]4(C3)CN3CCC4CC3)nc2c1` [(R)-27, (R)—N-(5-fluorobenzo[d]thiazol-2-yl)-4H-1′-azaspiro[isoxazole-5,3′-bicyclo[2.2.2]octan]-3-amine hydrochloride], 5.24; under `c1ccc2sc(NC3=NOC4(C3)CN3CCC4CC3)nc2c1` (single isomer, unassigned) [Compound 3-P2, N-(benzo[d]thiazol-2-yl)-4H-1′-azaspiro[isoxazole-5,3′-bicyclo[2.2.2]octan]-3-amine], 6.46.
Still for that read-out and setting: as for `Cc1cc2cc(NC3=NO[C@@]4(C3)CN3CCC4CC3)ccc2s1` [(R)-43, (R)—N-(2-methylbenzo[b]thiophen-5-yl)-4H-1′-azaspiro[isoxazole-5,3′-bicyclo[2.2.2.]octan]-3-amine hydrochloride], the figure is 5.23.
In turn, `Clc1ccc(NC2=NOC3(C2)CN2CCC3CC2)cc1Cl` (single isomer, unassigned) [Compound 21-P1, N-(3,4-dichlorophenyl)-4H-1′-azaspiro[isoxazole-5,3′-bicyclo[2.2.2]octan]-3-amine] showed a negative-log Ki (pKi) of 7.38.
As for `Cc1ccc2nc(NC3=NO[C@@]4(C3)CN3CCC4CC3)ncc2c1` [(R)-70, (R)—N-(6-methylquinazolin-2-yl)spiro[4H-isoxazole-5,3^1-quinuclidine]-3-amine], the pKi under setting [1] was < 5.00.
Consider `Clc1cc2cnc(NC3=NO[C@@]4(C3)CN3CCC4CC3)cc2cc1Cl` [(R)-62, (R)—N-(6,7-dichloroisoquinolin-3-yl)-4H-1′-azaspiro[isoxazole-5,3′-bicyclo[2.2.2]octan]-3-amine trifluoroacetate], for which the pKi is < 5.00.
As for `Cc1ccc2sc(NC3=NO[C@@]4(C3)CN3CCC4CC3)nc2c1` [(R)-25, (R)—N -(5-methylbenzo[d]thiazol-2-yl)-4H-1′-azaspiro[isoxazole-5,3′-bicyclo[2.2.2]octan]-3-amine hydrochloride], under setting [1], the pKi is 5.38.
Still for that read-out and setting: as for `c1ccc2oc(NC3=NOC4(C3)CN3CCC4CC3)nc2c1` (single isomer, unassigned) [Compound 13-P1, N-(benzo[d]oxazol-2-yl)-4H-1′-azaspiro[isoxazole-5,3′-bicyclo[2.2.2]octan]-3-amine], the figure is 5.62.
Still for that read-out and setting: under `FC(F)(F)c1ccc2cnc(NC3=NO[C@@]4(C3)CN3CCC4CC3)cc2c1` [(R)-83, (R)—N-(6-(trifluoromethypisoquinolin-3-yl)-4H-1′-azaspiro[isoxazole-5,3′-bicyclo[2.2.2]octan]-3-amine hydrochloride] stands < 5.00; under `c1ccc2nc(NC3=NO[C@@]4(C3)CN3CCC4CC3)ncc2c1` [(R)-22, (R)—N-(quinazolin-2-yl)-4H-1′-azaspiro[isoxazole-5,3′-bicyclo[2.2.2]octan]-3-amine hydrochloride], 5.28; under `Cc1ccc2cnc(NC3=NO[C@@]4(C3)CN3CCC4CC3)nc2c1` [(R)-71, (R)—N-(7-methylquinazolin-2-yl)-4H-1′-azaspiro[isoxazole-5,3′-bicyclo[2.2.2]octan]-3-amine hydrochloride], 5.19.
In the case of `c1cc2nc(NC3=NOC4(C3)CN3CCC4CC3)sc2cc1C1CC1` (single isomer, unassigned) [Compound 15-P1, N-(6-cyclopropylbenzo[d]thiazol-2-yl)-4H-1′-azaspiro[isoxazole-5,3′-bicyclo[2.2.2]octan]-3-amine], under setting [1], the pKi is < 5.00.
Molecule `Clc1coc2cc(NC3=NO[C@@]4(C3)CN3CCC4CC3)ccc12` [(R)-73-1, (R)—N-(3-chlorobenzofuran-6-yl)-4H-1′-azaspiro[isoxazole-5,3′-bicyclo[2.2.2]octan]-3-amine hydrochloride] had a negative-log Ki (pKi) of 5.31.
For the molecule `Clc1ccc2nc(NC3=NO[C@@]4(C3)CN3CCC4CC3)ncc2c1` [(R)-48, (R)—N-(6-chloroquinazolin-2-yl)-4H-1′-azaspiro[isoxazole-5,3′-bicyclo[2.2.2]octan]-3-amine hydrochloride], the pKi under setting [1] was < 5.00.
Regarding `Cc1ccc2cnc(NC3=NO[C@@]4(C3)CN3CCC4CC3)cc2c1` [(R)-60, (R)—N-(6-methylisoquinolin-3-yl)-4H-1′-azaspiro[isoxazole-5,3′-bicyclo[2.2.2]octan]-3-amine hydrochloride], under setting [1], the negative logarithm of the Ki (pKi) was < 5.00.
